Test results as given in patent US20240287052A1, “NOVEL OXAZOLE DERIVATIVE AND PHARMACEUTICAL COMPOSITION FOR PREVENTING OR TREATING ALLERGIC DISEASES COMPRISING THE SAME” (AZCURIS CO., LTD., priority 2021, published 2024).
Like-named read-outs stand apart in the source and are kept apart here.

Assays:
[1] = target: T1, IL33 and ST2 binding (Homo sapiens, UniProt O95760);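 also: plate ELISA with coated Flag-tagged human IL-33 and His-tagged human ST2, bound ST2 detected by anti-His HRP and TMB absorbance at 450 nm, 2 h compound incubation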
T1 sequence (O95760 112-270 limits assumed): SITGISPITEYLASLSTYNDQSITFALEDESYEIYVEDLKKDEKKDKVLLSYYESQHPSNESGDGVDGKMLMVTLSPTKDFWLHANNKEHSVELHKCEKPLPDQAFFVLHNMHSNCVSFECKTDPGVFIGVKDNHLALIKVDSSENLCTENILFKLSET

[2] = tested on: IL-6 secretion in the human mast cell line HMC 1.1; test: IL-6 production inhibition assay (IL-33 stimulated HMC 1.1 cells, IL-6 ELISA); type: cell-based; settings: 24 hours; for inhibition at 1 µM: 1 μM compound, read-out: Inhibition of hIL-6 production (%) 1 μM; for inhibition at 10 µM: 10 μM compound, read-out: Inhibition of hIL-6 production (%) 10 μM
Description: Human mast cell line HMC 1.1 cells were cultured in medium (Iscove's Modified Dulbecco's Medium, IMDM, HyClone) supplemented with […] fetal bovine serum (FBS, HyClone) and 1% antibiotics and maintained at 37° C. with 5% CO2.
HMC 1.1 cells, which are non-adherent cells, were cultured in 0.5 mL of culture medium containing 200 nM of IL-33 wild type human recombinant protein after centrifugation of cells in culture flasks filled to […] capacity and incubated for 24 hours with […], 10 μM, 25 μM, 30 μM or 50 μM of Example compound.
Medium was harvested by centrifugation (2,000×g, 5 min) and stored at −80° C. until ELISA assay.
Experiments were performed according to the protocol using the Human IL-6 ELISA kit (abCam).
The average of the three values obtained in triplicate was calculated and the amount of IL-6 secretion was measured using a standard curve. The measured IL-6 secretion was converted to 100% based on the vehicle treatment sample value to obtain the vehicle %.

| SMILES | inhibition ([1]; 30 µM) | inhibition ([1]; 100 µM) | inhibition at 1 µM [2] | inhibition at 10 µM [2] |
| --- | --- | --- | --- | --- |
| CN(C)CCNC(=O)c1nc(-c2ccc3ccccc3c2)oc1-c1ccccc1 [Compound 257, N-(2-(Dimethylamino)ethyl)-2-(naphthalen-2-yl)-5-phenyloxazole-4-carboxamide] | 6% | 1% |  |  |
| CN1CCN(CCNC(=O)c2nc(-c3ccc4ccccc4c3)oc2-c2ccccc2)CC1 [Compound 258, N-(2-(4-Methylpiperazin-1-yl)ethyl)-2-(naphthalen-2-yl)-5-phenyloxazole-4-carboxamide] | 35% | 49% |  |  |
| CN(C)CCNC(=O)c1nc(-c2ccc3ccccc3c2)oc1-c1ccccc1[N+](=O)[O-] [Compound 259, N-(2-(Dimethylamino)ethyl)-2-(naphthalen-2-yl)-5-(2-nitrophenyl)oxazole-4-carboxamide] | 6% | 1% |  |  |
| CN1CCN(CCNC(=O)c2nc(-c3ccc4ccccc4c3)oc2-c2ccccc2[N+](=O)[O-])CC1 [Compound 260, N-(2-(4-Methylpiperazin-1-yl)ethyl)-2-(naphthalen-2-yl)-5-(2-nitrophenyl)oxazole-4-carboxamide] | 9% | 23% |  |  |
| CN(C)CCNC(=O)c1nc(-c2ccc(N(C)C)cc2)oc1-c1ccccc1 [Compound 261, N-(2-(Dimethylamino)ethyl)-2-(4-(dimethylamino)phenyl)-5-phenyloxazole-4-carboxamide] | 3% | 8% |  |  |
| CN1CCN(CCNC(=O)c2nc(-c3ccc(N(C)C)cc3)oc2-c2ccccc2)CC1 [Compound 262, 2-(4-(Dimethylamino)phenyl)-N-(2-(4-methylpiperazin-1-yl)ethyl)-5-phenyloxazole-4-carboxamide] | 14% | 33% |  |  |
| CN(C)CCNC(=O)c1nc(-c2ccc(N(C)C)cc2)oc1-c1ccccc1[N+](=O)[O-] [Compound 263, N-(2-(Dimethylamino)ethyl)-2-(4-(dimethylamino)phenyl)-5-(2-nitrophenyl)oxazole-4-carboxamide] | -35% | -10% |  |  |
| CN1CCN(CCNC(=O)c2nc(-c3ccc(N(C)C)cc3)oc2-c2ccccc2[N+](=O)[O-])CC1 [Compound 264, 2-(4-(Dimethylamino)phenyl)-N-(2-(4-methylpiperazin-1-yl)ethyl)-5-(2-nitrophenyl)oxazole-4-carboxamide] | 29% | 35% |  |  |
| CN(C)CCNC(=O)c1nc(-c2ccc(C(C)(C)C)cc2)oc1-c1ccccc1 [Compound 265, 2-(4-(tert-Butyl)phenyl)-N-(2-(dimethylamino)ethyl)-5-phenyloxazole-4-carboxamide] | 5% | 14% |  |  |
| CN1CCN(CCNC(=O)c2nc(-c3ccc(C(C)(C)C)cc3)oc2-c2ccccc2)CC1 [Compound 266, 2-(4-(tert-butyl)phenyl)-N-(2-(4-methylpiperazin-1-yl)ethyl)-5-phenyloxazole-4-carboxamide] | -29% | 10% |  |  |
| CCN(CC)CCNC(=O)c1nc(-c2ccc(C(C)(C)C)cc2)oc1-c1ccccc1 [Compound 267, 2-(4-(tert-butyl)phenyl)-N-(2-(diethylamino)ethyl)-5-phenyloxazole-4-carboxamide] | 23% | 29% |  |  |
| CN(C)CCNC(=O)c1nc(-c2ccc(C(C)(C)C)cc2)oc1-c1ccccc1[N+](=O)[O-] [Compound 268, 2-(4-(tert-Butyl)phenyl)-N-(2-(dimethylamino)ethyl)-5-(2-nitrophenyl)oxazole-4-carboxamide] | -15% | -6% |  |  |
| CN1CCN(CCNC(=O)c2nc(-c3ccc(C(C)(C)C)cc3)oc2-c2ccccc2[N+](=O)[O-])CC1 [Compound 269, 2-(4-(tert-Butyl)phenyl)-N-(2-(4-methylpiperazin-1-yl)ethyl)-5-(2-nitrophenyl)oxazole-4-carboxamide] | 33% | 44% |  |  |
| CCN(CC)CCNC(=O)c1nc(-c2ccc(C(C)(C)C)cc2)oc1-c1ccccc1[N+](=O)[O-] [Compound 270, 2-(4-(tert-Butyl)phenyl)-N-(2-(diethylamino)ethyl)-5-(2-nitrophenyl)oxazole-4-carboxamide] | 20% | 37% |  |  |
| CSc1ccc(-c2nc(C(=O)NCCN(C)C)c(-c3ccccc3[N+](=O)[O-])o2)cc1 [Compound 273, N-(2-(Dimethylamino)ethyl)-2-(4-(methylthio)phenyl)-5-(2-nitrophenyl)oxazole-4-carboxamide] | -25% | -18% |  |  |
| CSc1ccc(-c2nc(C(=O)NCCN3CCN(C)CC3)c(-c3ccccc3[N+](=O)[O-])o2)cc1 [Compound 274, N-(2-(4-Methylpiperazin-1-yl)ethyl)-2-(4-(methylthio)phenyl)-5-(2-nitrophenyl)oxazole-4-carboxamide] | 18% | 20% |  |  |
| CN(C)CCNC(=O)c1nc(-c2ccc([N+](=O)[O-])cc2)oc1-c1ccccc1 [Compound 275, N-(2-(Dimethylamino)ethyl)-2-(4-nitrophenyl)-5-phenyloxazole-4-carboxamide] | -16% | -28% |  |  |
| CN1CCN(CCNC(=O)c2nc(-c3ccc([N+](=O)[O-])cc3)oc2-c2ccccc2)CC1 [Compound 276, N-(2-(4-Methylpiperazin-1-yl)ethyl)-2-(4-nitrophenyl)-5-phenyloxazole-4-carboxamide] | 2% | -23% |  |  |
| CN1CCN(CCNC(=O)c2nc(-c3ccc([N+](=O)[O-])cc3)oc2-c2ccccc2[N+](=O)[O-])CC1 [Compound 278, N-(2-(4-Methylpiperazin-1-yl)ethyl)-5-(2-nitrophenyl)-2-(4-nitrophenyl)oxazole-4-carboxamide] | 46% | 47% |  |  |
| CN(C)CCNC(=O)c1nc(-c2ccc(C3CC3)cc2)oc1-c1ccccc1 [Compound 279, 2-(4-Cyclopropylphenyl)-N-(2-(dimethylamino)ethyl)-5-phenyloxazole-4-carboxamide] | 16% | 4% |  |  |
| CN1CCN(CCNC(=O)c2nc(-c3ccc(C4CC4)cc3)oc2-c2ccccc2)CC1 [Compound 280, 2-(4-Cyclopropylphenyl)-N-(2-(4-Methylpiperazin-1-yl)ethyl)-5-phenyloxazole-4-carboxamide] | 2% | 0% |  |  |
| O=C(NCCN1CCNCC1)c1nc(-c2ccc(C(F)(F)F)cc2)oc1-c1ccccc1[N+](=O)[O-] [Compound 281, 5-(2-nitrophenyl)-N-(2-(piperazin-1-yl)ethyl)-2-(4-(trifluoromethyl)phenyl)oxazole-4-carboxamide] | 73% | 71% |  |  |
| O=C(NCCN1CCNCC1)c1nc(-c2cc(F)cc(F)c2)oc1-c1ccccc1[N+](=O)[O-] [Compound 283, 2-(3,5-Difluorophenyl)-5-(2-nitrophenyl)-N-(2-(piperazin-1-yl)ethyl)oxazole-4-carboxamide] | 31% | 49% |  |  |
| CC(=O)N1CCN(CCNC(=O)c2nc(-c3cc(F)cc(F)c3)oc2-c2ccccc2[N+](=O)[O-])CC1 [Compound 286, N-(2-(4-Acetylpiperazin-1-yl)ethyl)-2-(3,5-difluorophenyl)-5-(2-nitrophenyl)oxazole-4-carboxamide] | 18% | 33% |  |  |
| CS(=O)(=O)N1CCN(CCNC(=O)c2nc(-c3ccc(C(F)(F)F)cc3)oc2-c2ccccc2[N+](=O)[O-])CC1 [Compound 287, N-(2-(4-(methylsulfonyl)piperazin-1-yl)ethyl)-5-(2-nitrophenyl)-2-(4-(trifluoromethyl)phenyl)oxazole-4-carboxamide] | 41% | 46% |  |  |
| CS(=O)(=O)NCCNC(=O)c1nc(-c2ccc(C(F)(F)F)cc2)oc1-c1ccccc1[N+](=O)[O-] [Compound 288, N-(2-(Methylsulfonamido)ethyl)-5-(2-nitrophenyl)-2-(4-(trifluoromethyl)phenyl)oxazole-4-carboxamide] | 43% | 50% |  |  |
| COCCNC(=O)c1nc(-c2ccc(C(F)(F)F)cc2)oc1-c1cccc(SC)c1 [Compound 293, N-(2-Methoxyethyl)-5-(3-(methylthio)phenyl)-2-(4-(trifluoromethyl)phenyl)oxazole-4-carboxamide] | 40% | 107% |  |  |
| CCCNC(=O)c1nc(-c2ccc(C(F)(F)F)cc2)oc1-c1ccccc1 [Compound 295, 5-Phenyl-N-propyl-2-(4-(trifluoromethyl)phenyl)oxazole-4-carboxamide] |  |  | 53% | 57% |
| CCNC(=O)c1nc(-c2ccc(C(F)(F)F)cc2)oc1-c1ccccc1OC [Compound 296, N-Ethyl-5-(2-methoxyphenyl)-2-(4-(trifluoromethyl)phenyl)oxazole-4-carboxamide] |  |  | 0% | 32% |
| CCCNC(=O)c1nc(-c2ccc(C(F)(F)F)cc2)oc1-c1ccccc1OC [Compound 297, 5-(2-Methoxyphenyl)-N-propyl-2-(4-(trifluoromethyl)phenyl)oxazole-4-carboxamide] |  |  | 3% | 34% |
